# Assay results reported in ChEMBL document CHEMBL1201862, “PubChem BioAssay data set” (2004).
#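 Method: 48-hour compound exposure of cells in 96-well plates, five concentrations, linear interpolation of endpoints. GI50: concentration for 50% inhibition of growth.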 Activity calls are given as the source filed them. Rule as the data show it: active = GI50 up to about 1.1 µM and inactive = higher.
# How the values were obtained:
# Experiment in all cases: DTP human tumour cell line panel, 48 h
# 786-0 = test system: 786-0
# A549 = test system: A549
# CAKI-1 = test system: CAKI-1
# CCRF-CEM = test system: CCRF-CEM
# DU-145 = test system: DU-145
# EKVX = test system: EKVX
# HCC 2998 = test system: HCC 2998
# HOP-62 = test system: HOP-62
# HT-29 = test system: HT-29
# Hs-578T = test system: Hs-578T
# KM12 = test system: KM12
# NCI-H522 = test system: NCI-H522
# RXF 393 = test system: RXF 393
# SF-268 = test system: SF-268
# SK-MEL-2 = test system: SK-MEL-2
# SNB-75 = test system: SNB-75
# SR = test system: SR
# U-251 = test system: U-251
# NCI-H226 = test system: NCI-H226
SMILES,GI50 (786-0),GI50 (A549),GI50 (CAKI-1),GI50 (CCRF-CEM),GI50 (DU-145),GI50 (EKVX),GI50 (HCC 2998),GI50 (HOP-62),GI50 (HT-29),GI50 (Hs-578T),GI50 (KM12),GI50 (NCI-H522),GI50 (RXF 393),GI50 (SF-268),GI50 (SK-MEL-2),GI50 (SNB-75),GI50 (SR),GI50 (U-251),GI50 (NCI-H226)
C=C1C2CCC3(CCC4C5(C)CCCC4(C=[N+](CCO)C5)C3C2)C1O (configuration not stated),> 100 µM (inactive),> 100 µM (inactive),> 100 µM (inactive),> 100 µM (inactive),> 100 µM (inactive),> 100 µM (inactive),> 100 µM (inactive),> 100 µM (inactive),> 100 µM (inactive),> 100 µM (inactive),> 100 µM (inactive),> 100 µM (inactive),> 100 µM (inactive),> 100 µM (inactive),> 100 µM (inactive),> 100 µM (inactive),> 100 µM (inactive),> 100 µM (inactive),
C/C=C(/COC(C)=O)C(=O)OC1C=C(C=O)C(C)(C)C=C1C (configuration not stated),> 100 µM (inactive),> 100 µM (inactive),> 100 µM (inactive),37.7 µM (inactive),> 100 µM (inactive),> 100 µM (inactive),> 100 µM (inactive),,> 100 µM (inactive),> 100 µM (inactive),> 100 µM (inactive),> 100 µM (inactive),,> 100 µM (inactive),> 100 µM (inactive),43.6 µM (inactive),27.5 µM (inactive),> 100 µM (inactive),> 100 µM (inactive)
NS(=O)(=O)c1ccc(-c2ccc([As](=O)(O)O)cc2)cc1,> 100 µM (inactive),> 100 µM (inactive),> 100 µM (inactive),,> 100 µM (inactive),> 100 µM (inactive),,78.3 µM (inactive),> 100 µM (inactive),> 100 µM (inactive),> 100 µM (inactive),> 100 µM (inactive),> 100 µM (inactive),> 100 µM (inactive),> 100 µM (inactive),11.6 µM (inactive),> 100 µM (inactive),> 100 µM (inactive),> 100 µM (inactive)
CC(C)C1=C(O)C(=O)C2=C(C1=O)C(O)CC1C(C)(C)CCCC21C (configuration not stated),9.2 µM (inactive),4.56 µM (inactive),8.05 µM (inactive),6.71 µM (inactive),8.3 µM (inactive),6.56 µM (inactive),3.58 µM (inactive),7.35 µM (inactive),22.1 µM (inactive),3.88 µM (inactive),5.45 µM (inactive),21.6 µM (inactive),2.14 µM (inactive),6 µM (inactive),2.84 µM (inactive),30.2 µM (inactive),4 µM (inactive),4.8 µM (inactive),
CC1CCN(c2nnc(Cl)cc2C(=O)c2ccccc2)CC1,41.7 µM (inactive),32.1 µM (inactive),17.9 µM (inactive),13.5 µM (inactive),38.3 µM (inactive),29.8 µM (inactive),30.5 µM (inactive),28.4 µM (inactive),17.7 µM (inactive),20 µM (inactive),18 µM (inactive),26.7 µM (inactive),16.9 µM (inactive),1.67 µM (inactive),18.5 µM (inactive),27.5 µM (inactive),17.5 µM (inactive),31.1 µM (inactive),
CCC1(CC)C(=O)CC[C@@]2(C)C1=CC[C@H]1[C@@H]3CC[C@H](O)[C@@]3(C)CC[C@@H]12,15.5 µM (inactive),13.5 µM (inactive),83.8 µM (inactive),19.6 µM (inactive),33.8 µM (inactive),28.5 µM (inactive),,19.1 µM (inactive),15 µM (inactive),24.4 µM (inactive),32.1 µM (inactive),19.8 µM (inactive),36.6 µM (inactive),32.5 µM (inactive),79.3 µM (inactive),35.6 µM (inactive),15.4 µM (inactive),18.1 µM (inactive),29 µM (inactive)
Cc1ccc(S(=O)(=O)N(CCN2C(=O)c3ccccc3C2=O)c2cc3c4c(c2)Oc2cc(N(CCN5C(=O)c6ccccc6C5=O)S(=O)(=O)c5ccc(C)cc5)cc5c2C4(C)c2c(cc(N(CCN4C(=O)c6ccccc6C4=O)S(=O)(=O)c4ccc(C)cc4)cc2O5)O3)cc1,> 100 µM (inactive),> 100 µM (inactive),> 100 µM (inactive),> 100 µM (inactive),> 100 µM (inactive),> 100 µM (inactive),,> 100 µM (inactive),> 100 µM (inactive),> 100 µM (inactive),> 100 µM (inactive),> 100 µM (inactive),> 100 µM (inactive),> 100 µM (inactive),> 100 µM (inactive),> 100 µM (inactive),> 100 µM (inactive),> 100 µM (inactive),> 100 µM (inactive)
COC(=O)c1c(C)c2c(c(C)c1C(=O)OC)-c1c(C)ccc3ccc(C)c-2c13,19.1 µM (inactive),37.9 µM (inactive),> 100 µM (inactive),11.4 µM (inactive),> 100 µM (inactive),66.4 µM (inactive),,> 100 µM (inactive),7.82 µM (inactive),23.7 µM (inactive),9.38 µM (inactive),31.2 µM (inactive),15.6 µM (inactive),54 µM (inactive),> 100 µM (inactive),27.8 µM (inactive),6.78 µM (inactive),58.9 µM (inactive),> 100 µM (inactive)
CC1=C2C(=O)c3ccccc3C(=O)[C@H]2C[C@@H](N2CCCC2=O)O1,25.2 µM (inactive),43.1 µM (inactive),77.3 µM (inactive),32.4 µM (inactive),26.9 µM (inactive),76.4 µM (inactive),> 100 µM (inactive),39.6 µM (inactive),41.6 µM (inactive),94.8 µM (inactive),77.6 µM (inactive),79.8 µM (inactive),23.7 µM (inactive),48.1 µM (inactive),> 100 µM (inactive),15.3 µM (inactive),32.2 µM (inactive),28 µM (inactive),
CCC(C)C(=O)OC1CC2(C)C(c3ccoc3)OC(=O)CC23OC2(C)OC34C(OC(=O)C(C)C)C3(O)C(OC(=O)C5(C)OC5C)C5(C)CC3(O)C(C)(C5CC(=O)OC)C14O2 (configuration not stated),> 100 µM (inactive),34.3 µM (inactive),57.3 µM (inactive),28.6 µM (inactive),68.2 µM (inactive),24.3 µM (inactive),66.8 µM (inactive),,29.7 µM (inactive),14.5 µM (inactive),43 µM (inactive),37 µM (inactive),,47.2 µM (inactive),68.7 µM (inactive),15.5 µM (inactive),24.1 µM (inactive),86.1 µM (inactive),51.6 µM (inactive)
COc1cc(C(N)=O)cc(NC(=O)/C=C/c2ccccc2)c1OC,> 100 µM (inactive),> 100 µM (inactive),> 100 µM (inactive),> 100 µM (inactive),> 100 µM (inactive),89.7 µM (inactive),> 100 µM (inactive),> 100 µM (inactive),> 100 µM (inactive),> 100 µM (inactive),> 100 µM (inactive),64.9 µM (inactive),> 100 µM (inactive),64.3 µM (inactive),> 100 µM (inactive),19.7 µM (inactive),74.8 µM (inactive),> 100 µM (inactive),
O=c1cc2oc3ccc4ccccc4c3cc-2c(=O)[nH]1,13.8 µM (inactive),21 µM (inactive),15.3 µM (inactive),1.07 µM (active),13.6 µM (inactive),18 µM (inactive),16.9 µM (inactive),10.8 µM (inactive),16 µM (inactive),24.4 µM (inactive),20 µM (inactive),9.12 µM (inactive),,12.7 µM (inactive),17.3 µM (inactive),,2.62 µM (inactive),10.2 µM (inactive),
Cc1cn(CCCCCOC(=O)NC(CCCNC(=N)N)C(=O)O)c(=O)[nH]c1=O (configuration not stated),39.4 µM (inactive),49.2 µM (inactive),37.1 µM (inactive),37.2 µM (inactive),37.5 µM (inactive),40.3 µM (inactive),35.7 µM (inactive),> 100 µM (inactive),24.2 µM (inactive),15.5 µM (inactive),19 µM (inactive),,33.3 µM (inactive),> 100 µM (inactive),> 100 µM (inactive),31.6 µM (inactive),2.57 µM (inactive),50.2 µM (inactive),30.3 µM (inactive)
O=c1c(-c2ccc3c(c2)OCO3)coc2c3c(ccc12)OCO3,19.4 µM (inactive),49.9 µM (inactive),63.7 µM (inactive),> 100 µM (inactive),41.4 µM (inactive),38 µM (inactive),58.1 µM (inactive),20.1 µM (inactive),,22.3 µM (inactive),30.8 µM (inactive),18.3 µM (inactive),,19.1 µM (inactive),95.9 µM (inactive),23 µM (inactive),40 µM (inactive),37.6 µM (inactive),
O=C(/C=C/c1ccc(O)cc1)NCCc1ccc(O)cc1 [N-P-COUMAROYL TYRAMINE],> 12.5 µM (inactive),4.06 µM (inactive),10.2 µM (inactive),2.99 µM (inactive),12 µM (inactive),3.05 µM (inactive),,> 12.5 µM (inactive),> 12.5 µM (inactive),> 12.5 µM (inactive),> 12.5 µM (inactive),3.38 µM (inactive),> 12.5 µM (inactive),9.57 µM (inactive),> 12.5 µM (inactive),,4.02 µM (inactive),> 12.5 µM (inactive),> 12.5 µM (inactive)
